Experimental data from US12077607B2, “Functional and therapeutic effects of PAR4 cleavage by cathepsin G” (UNIVERSITY OF UTAH RESEARCH FOUNDATION, priority 2021, dated 2024).
Where a chain is given by its changes, count along the chain named. Entries after “also recorded” stand apart in the source; their conditions may differ.

What was measured:
Format in all cases: cell-based
PAR4-S67E = molecular target: T1, PAR4-S67E (Homo sapiens, UniProt Q96RI0, S67E); assay: PAR4 mutant calcium flux assay, HEK293T/17 cells, S67E; conditions: 100 nM vorapaxar
T1 construct: Flag; expressed in transfected cells; host or cells: HEK293T/17 (ATCC CRL-11268)
T1 sequence (Q96RI0 18-385 S67E): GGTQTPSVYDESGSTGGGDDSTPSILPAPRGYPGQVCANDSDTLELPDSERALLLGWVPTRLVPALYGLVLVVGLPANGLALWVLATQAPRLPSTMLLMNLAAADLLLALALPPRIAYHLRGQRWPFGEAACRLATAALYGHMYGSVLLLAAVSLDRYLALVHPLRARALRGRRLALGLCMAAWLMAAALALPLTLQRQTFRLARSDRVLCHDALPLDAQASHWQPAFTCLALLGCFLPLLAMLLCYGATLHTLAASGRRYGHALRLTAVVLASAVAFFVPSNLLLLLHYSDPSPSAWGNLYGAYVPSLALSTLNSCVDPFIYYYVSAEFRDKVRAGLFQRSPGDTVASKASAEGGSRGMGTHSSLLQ
Protocol: (§1) PAR4 mutant calcium flux assays. Using Quikchange Lightning Site-Directed mutagenesis (Agilent) per manufacturing instructions, pCMV-Flag-PAR4-S66E, pCMV-Flag-PAR4-S67E, and pCMV-Flag-PAR4-R68E were generated from mutation of pCMV-Flag-PAR4 and confirmed by sequencing (University of Utah DNA Sequencing Core). Prior to transfection, HEK293T/17 cells (ATCC CRL-11268) were seeded at 4.5×10^4/mL. The following day, cells were transfected with the plasmid of interest using Lipofectamine 2000 (Invitrogen, Carlsbad, CA, USA). Twenty-four hours after transfection, media was removed and replaced with Optimem w/Glutamax (Gibco, Carlsbad, CA, USA) containing vorapaxar (100 nM) (Cayman Chemical, Ann Arbor, MI, USA) and Fura2-QBT (Molecular Devices). Following incubation for 1 hour at 37° C., plate was placed in the Flexstation 3 (Molecular Devices) where agonists, Tyrode's Buffer, cathepsin G (2.5 μM), or α-thrombin (1.5 U/mL), were injected onto cells and calcium mobilization was monitored and recorded.

dog washed platelets = assay: Platelet aggregation of dog washed platelets; conditions: 1 U/mL human thrombin, 1 μM human CatG or 1 mM RA-11mer
Text: Animal studies. Mouse platelets were isolated as previously described from C57BL/6 mice (Denorme et al., Blood. 2020; 135(6):429-440). Dog platelets were isolated from whole blood drawn into ACD using a similar isolation procedure as for human platelets. All animal studies were approved by the University of Utah Institutional Animal Care and Use Committee (18-10012).
(§2) Platelet and neutrophil isolation. Platelets and neutrophils were isolated as previously described (Yost et al., J Clin Invest. 2016; 126(10):3783-3798). Platelet isolation from dogs, rats and mice was approved by the IACUC. Platelet activation and aggregation were performed as previously described (Manne et al., Blood. 2020; 136(11): 1317-1329).
(§3) Platelet isolation, aggregation, and activation. Human washed platelets were prepared and resuspended in Tyrode's Buffer at 2×10^8/mL as described (Edelstein et al., Nat Med. 2013; 19(12):1609-1616). For human and dog platelet comparisons, platelets were prepared using a modified human platelet protocol with final concentrations of […] (Cayman Chemical, Ann Arbor, MI, USA) used during centrifugation steps. Centrifugations after Tyrode's washes was decreased to 1,250×g as described in Cremer et al., PLOS One. 2019; 14(11): e0224891. Platelet aggregation was measured under stirring conditions at 37° C. using a PAP-8E aggregometer after treatment with the following agonists: arachidonic acid (Bio/Data Corporation, Horsham, PA, USA), cathepsin G, elastase, proteinase 3 (Athens Research Group), α-thrombin (Sigma, St. Louis, MO, USA), PAR-1 peptide (SFLLRN) (GL Biochem, China). P-selectin and PAC-1 were measured as previously described (Yee et al., J Thromb Haemost. 2006; 4(9):2043-2050; Tourdot et al., Arterioscler Thromb Vasc Biol. 2014; 34(12):2644-2650).

PAR4-S66E = molecular target: T2, PAR4-S66E (Homo sapiens, UniProt Q96RI0, S66E); assay: PAR4 mutant calcium flux assay, HEK293T/17 cells, S66E; conditions: 100 nM vorapaxar
T2 construct: Flag; expressed in transfected cells; host or cells: HEK293T/17 (ATCC CRL-11268)
T2 sequence (Q96RI0 18-385 S66E): T1 sequence (Q96RI0 18-385 S67E) with S49E, E50S
Protocol: as §1

rat washed platelets = assay: Platelet aggregation of rat washed platelets; conditions: 1 U/mL human thrombin, 1 μM human CatG or 1 mM RA-11mer
Protocol: as §2, §3

washed platelets = assay: Platelet aggregation of human washed platelets; conditions: for platelet aggregation, species comparison: humans: 1 U/mL human thrombin, 1 μM human CatG or 1 mM RA-11mer
Protocol: as §3
GYPGQV-NH2 (SEQ ID NO: 5), RALLLGWVPTR-NH2 (SEQ ID NO: 1), ALLLGWVPTR-NH2 (SEQ ID NO: 2), RALLLG-NH2 (SEQ ID NO: 4). Peptides were synthesized by BIOMATIK (Wilmington, DE, USA) at similar purities. All peptides were suspended in 50% DMSO and 50% ethanol. To measure platelet activation, washed platelets were stimulated with various concentrations of the peptide in the presence of CD41-APC, P-selectin (PE) and PAC-1 (FITC) for 15 minutes at 37° C. and then fixed with FACS Lysis Buffer. Samples were immediately run on a Cytoflex flow cytometer. In some experiments, platelets were stimulated with peptides and platelet aggregation performed as described above. Platelet calcium flux was induced by RALLLGWVPTR (2 mM; SEQ ID NO: 1), CatG (500 nM), ALLLGWVPTR (2 mM; SEQ ID NO: 2) or tyrodes buffer and monitored as described above.

Substance | thrombin-induced calcium flux, S67E mutant compared with WT (PAR4-S67E; thrombin 1.5 U/mL) | platelet aggregation, species comparison: dogs (dog washed platelets) | thrombin-induced calcium flux, S66E mutant compared with WT (PAR4-S66E; thrombin 1.5 U/mL) | platelet aggregation, species comparison: rats (rat washed platelets) | platelet aggregation, species comparison: humans (washed platelets) | CatG-induced calcium flux, S67E mutant compared with WT (PAR4-S67E; CatG 2.5 μM, P<0.001) | CatG-induced calcium flux, S66E mutant compared with WT (PAR4-S66E; CatG 2.5 μM) | potency as activator of PAR4, comparison (washed platelets; from platelet aggregation data) | platelet aggregation induced by neutrophil serine protease (washed platelets; washed platelets, 400 nM protease)
thrombin | None of the PAR4 mutants were significantly different than WT | induced platelet aggregation | None of the PAR4 mutants were significantly different than WT | induced platelet aggregation | induced platelet aggregation |  |  |  | 
CatG: serine protease cathepsin G released by activated neutrophils |  | induced platelet aggregation; also recorded: not as responsive |  | only induced platelet aggregation in humans and dogs | induced platelet aggregation | significantly less calcium flux than WT | slight decrease | much less potent than the thrombin enzyme | only protease to induce platelet aggregation
